Assay results taken from US12226431B2 (priority 2021, dated 2025).

Tests used:
[1] = preservative in nasal sprays and nebulization; cited from earlier work
[2] = tested on: influenza virus; settings: cited from earlier work
[3] = tested on: SARS-COV-2; settings: two weeks of receiving the quercetin treatment; cited from earlier work
[4] = tested on: cell plasma membrane; assay: Cells exposed to increasing concentration of M-βCD to deplete plasma membrane cholesterol: phospholipid uptake and membrane fusion proteins; type: cell-based
[5] = tested on: pseudorabies virus; settings: cited from earlier work
[6] = tested on: vaccinia virus; settings: depletion of plasma membrane cholesterol in host cells; cited from earlier work
[7] = increasing concentration of M-βCD, cholesterol depletion

## OCc1ccccc1 [phenylcarbinol]
[1]
  adverse / toxic effects: toxic effects

## O=c1c(O)c(-c2ccc(O)c(O)c2)oc2cc(O)cc(O)c12 [quercetin]
[2]
  therapeutic effects against influenza virus: therapeutic effects
[3]
  SARS-COV-2 infected patients cleared of the virus: 98%

## Benzalkonium chloride
[1]
  adverse / toxic effects: sino-nasal mucosal injury, nasal squamous metaplasia, ciliary dysmotility, genotoxicity, and other adverse effects

## methyl beta cyclodextrin [M-βCD]
[4]; [7]
  uptake of phosphatidyl serine by the cell plasma membrane: loss in the uptake
  uptake of phosphatidylethanolamine by the cell plasma membrane: remain unchanged
[4]; loss of cholesterol from the cell plasma membrane
  membrane fusion proteins syntaxin and SNAP25 at the plasma membrane: depletion of membrane fusion proteins
[5]
  entry of pseudorabies virus into cells: significantly reduces
[6]
  entry of vaccinia virus into cells: significantly reduces
